{
  "source": "patent US20210008097A1",
  "about": "“Compositions Comprising Galactose-Pronged Polysaccharides” (Galectin Therapeutics, Inc., priority 2006, published 2021)",
  "key": {"[1]": {"conditions": "after 24 hrs; cited from earlier work"}, "[2]": {"experiment": "Liver, lung, kidney and plasma distribution of radiolabeled (tritiated) galactomannan after single intravenous injection", "type": "in vivo, male NCr-nu athymic nude mice", "conditions": "for μCi of 3H-galactomannan per 1 g of kidney / μCi of 3H-galactomannan per 1 g of liver / μCi of 3H-galactomannan per 1 g of lungs / μCi of 3H-galactomannan per kidney, total / μCi of 3H-galactomannan per lungs, total / μCi of 3H-galactomannan per mL of plasma / μCi of 3H-galactomannan per liver, total: 6 or 60 mg/kg i.v., pooled; for μCi of 3H-galactomannan per liver, total: average of four animals", "excerpt": "Twelve male NCr-nu athymic nude mice (Charles Rivers Laboratories, Raleigh, N.C.) were acclimated in the laboratory one week prior to experimentation. The animals were housed in microisolator cages, four per cage, and using a 12-hour light/dark cycle. All animals received sterilized tap water and sterile rodent food ad libitum. The animals were observed daily and clinical signs were noted. The mice were healthy and had not been previously used in other experimental procedures.\nTritiation of the galactomannan was performed as follows. 12.8 mg of the galactomannan was dissolved in 2.0 mL of water and exposed to 25 Curies of tritium gas in the presence of Pd/BaSO4 catalyst (120 mg, totally insoluble in water). After one hour the gas supply was removed, the catalyst was filtered away, and the aqueous solution of the galactomannan was evaporated to dryness repeatedly (four-fold, adding water), until no labile tritium was found. Total yield of the labeled galactomannan was 3.8 mCi, specific radioactivity was […].\nAll twelve mice were given a single intravenous injection of cold or tritiated galactomannan (either 6 or 60 mg/kg) on the same day. Non-labeled galactomannan was formulated in saline, and tritiated galactomannan was added to the solution so that each animal received 10 μCi of radioactivity. All dosing solutions (100 μL each) were counted in duplicate. Six mice were injected with 6 mg/kg solution, and six mice—with 60 mg/kg solution.\nTwo mice from each group were bled at 1, 6, and 24 hrs after injection, and plasma was prepared. Animals were then sacrificed; livers, kidneys and lungs were collected, weighed and flash-frozen for further analysis.\nAfter weighing, livers were dissolved in 10 mL of Soluene 350 and incubated first for 4 hrs at 50° C., and at room temperature, until tissues were solubilized. One mL of the resulting solution was counted in a scintillation counter as a single sample. Based on tissue weight and the sample volume, the number of μCi of tritiated galactomannan per gram of tissue was calculated.\nKidneys were treated in the same manner, but dissolved in two mL of Soluene. After the tissue was solubilized at room temperature, 15 mL of Safety Solve scintillation fluid was added and samples were incubated overnight. Five mL of the resulting solution were diluted in 15 mL of Safety Solve and counted in a scintillation counter as a single sample. Lungs were treated in the same manner but dissolved in one mL of Soluene. Plasma samples (50 μL each) were placed direct into Safety Solve and counted as a single sample.\nThe statistical evaluation was based on experiments to trace and quantify the labeled galactomannan in organs/tissues (liver, kidneys, lung, and plasma). Six mice were treated with galactomannan at 60 mg/kg with each of 2 mice sacrificed at 1, 6, and 24 hours; six mice were treated with galactomannan at 6 mg/kg with each of 2 mice sacrificed at 1, 6, and 24 hours, as described above. The percentages of ^3H-galactomannan recovered per organ (μCi/gram) was used for analyses; plasma outcome (μCi/ml) was counted from the entire sample.\nThe assessment of radiolabel uptake was challenging with only two mice per treatment-sacrifice time combination and occasional outliers. To address the number of mice per group, pooling tests were performed for the two galactomannan treatment groups; this would potentially increase sample size per group to four. To address possible outliers, all outcomes for each individual mouse was visually compared to the other mice in the series-treatment-time combination; the four possible mice outcomes were considered in this evaluation since any sigma-based rule would have excluded none or both observations if applied separately to the two different series.\nSAS (Version 6.12, Cary, N.C.) was used for all analyses. PROC ANOVA was used for pooling tests, while […] was used to estimate means and standard deviations.\nOverall, the data in Table 1 are average for four animals."}},
  "data": [
    {"compound": "O=c1[nH]cc(F)c(=O)[nH]1", "note": "[5-fluorouracil]", "values": [
      {"measurement": "clearance from the kidneys, eliminated to", "setting": "[1]", "value": 3.8, "unit": "%"},
      {"measurement": "clearance from the liver, eliminated to", "setting": "[1]", "value": 1.6, "unit": "%"},
      {"measurement": "clearance from the lungs, eliminated to", "setting": "[1]", "value": 3.6, "unit": "%"}
    ]},
    {"compound": "galactomannan", "values": [
      {"measurement": "increase of the amount of bound galactomannan", "setting": "[2]; 60 mg/kg versus 6 mg/kg (10-times higher dose)", "value": 10, "unit": "fold"},
      {"measurement": "μCi of 3H-galactomannan per 1 g of kidney", "setting": "[2]; 1 hr after injection", "value": 0.302, "unit": "μCi/gram"},
      {"measurement": "μCi of 3H-galactomannan per 1 g of liver", "setting": "[2]; 1 hr after injection", "value": 0.219, "unit": "μCi/gram"},
      {"measurement": "μCi of 3H-galactomannan per 1 g of lungs", "setting": "[2]; 1 hr after injection", "value": 0.117, "unit": "μCi/gram"},
      {"measurement": "μCi of 3H-galactomannan per kidney, total", "setting": "[2]; 1 hr after injection", "value": 0.120, "unit": "μCi"},
      {"measurement": "μCi of 3H-galactomannan per lungs, total", "setting": "[2]; 1 hr after injection", "value": 0.019, "unit": "μCi"},
      {"measurement": "μCi of 3H-galactomannan per mL of plasma", "setting": "[2]; 1 hr after injection", "value": 0.201, "unit": "μCi/ml"},
      {"measurement": "μCi of 3H-galactomannan per liver, total", "setting": "[2]; 1 hr after injection", "value": 0.262, "unit": "μCi"},
      {"measurement": "μCi of 3H-galactomannan per 1 g of kidney", "setting": "[2]; 6 hr after injection", "value": 0.131, "unit": "μCi/gram"},
      {"measurement": "μCi of 3H-galactomannan per 1 g of liver", "setting": "[2]; 6 hr after injection", "value": 0.146, "unit": "μCi/gram"},
      {"measurement": "μCi of 3H-galactomannan per 1 g of lungs", "setting": "[2]; 6 hr after injection", "value": 0.063, "unit": "μCi/gram"},
      {"measurement": "μCi of 3H-galactomannan per kidney, total", "setting": "[2]; 6 hr after injection", "value": 0.060, "unit": "μCi"},
      {"measurement": "μCi of 3H-galactomannan per lungs, total", "setting": "[2]; 6 hr after injection", "value": 0.012, "unit": "μCi"},
      {"measurement": "μCi of 3H-galactomannan per mL of plasma", "setting": "[2]; 6 hr after injection", "value": 0.095, "unit": "μCi/ml"},
      {"measurement": "μCi of 3H-galactomannan per liver, total", "setting": "[2]; 6 hr after injection", "value": 0.196, "unit": "μCi"},
      {"measurement": "μCi of 3H-galactomannan per 1 g of kidney", "setting": "[2]; 24 hrs after injection", "value": 0.087, "unit": "μCi/gram"},
      {"measurement": "μCi of 3H-galactomannan per 1 g of liver", "setting": "[2]; 24 hrs after injection", "value": 0.129, "unit": "μCi/gram"},
      {"measurement": "μCi of 3H-galactomannan per 1 g of lungs", "setting": "[2]; 24 hrs after injection", "value": 0.060, "unit": "μCi/gram"},
      {"measurement": "μCi of 3H-galactomannan per kidney, total", "setting": "[2]; 24 hrs after injection", "value": 0.040, "unit": "μCi"},
      {"measurement": "μCi of 3H-galactomannan per lungs, total", "setting": "[2]; 24 hrs after injection", "value": 0.011, "unit": "μCi"},
      {"measurement": "μCi of 3H-galactomannan per mL of plasma", "setting": "[2]; 24 hrs after injection", "value": 0.106, "unit": "μCi/ml"},
      {"measurement": "μCi of 3H-galactomannan per liver, total", "setting": "[2]; 24 hrs after injection", "value": 0.169, "unit": "μCi"},
      {"measurement": "saturation of the binding to liver, kidney, lung, and plasma", "setting": "[2]; between the 6 mg/kg and 60 mg/kg doses", "value": "did not reach saturation of the binding"},
      {"measurement": "share of the radioactivity detected at one hour after injection still present", "setting": "[2]; liver, at 24 hours, average", "value": "more than 50%"},
      {"measurement": "share of the one-hour radioactivity detected", "setting": "[2]; plasma, kidneys, and lungs, at 6 hours, average", "value": "approximately 50%"}
    ]}
  ]
}
